We go through eight compounds from PubChem BioAssay (NCI).

Common to all, as to assay: growth of human tumour cells (NCI), 48 h
Experiment [1] concerns A498 renal.
For experiment [2], the system named is CCRF-CEM leukemia.
Experiment [3] deals with HS 578T breast.
Experiment [4] deals with HT29 colon.
In experiment [5] the test system is NCI/ADR-RES ovarian.
The test system of experiment [6] is OVCAR-3 ovarian.
Experiment [7] relates to OVCAR-5 ovarian.
For experiment [8], the system named is PC-3 prostate.
The test system of experiment [9] is RPMI-8226 leukemia.
Experiment [10] concerns UACC-257 melanoma.

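96-well plates; 48 h exposure; 5 concentrations. Endpoints by linear interpolation between flanking doses. Not reached: highest tested concentration assigned. GI50: concentration for 50% inhibition of growth. TGI marks complete inhibition of growth.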

For the compound `Cc1ccc(NC(=O)Nc2c(Cl)cccc2Cl)cn1`, the GI50 in experiment [1] is 12.1 µM; in [2] it was 5.79 µM; in experiment [3] it was 1.94 µM; in [4], 3.93 µM; in experiment [5], 4.46 µM; in experiment [6], 4.5 µM. Moreover, the GI50 was 72.9 µM in experiment [7], 25.2 µM in experiment [8], 9.16 µM in [9] and 71.4 µM in [10]. For the same compound, the TGI in experiment [1] was over 100 µM; in [2] it was over 100 µM; in [3], 6.89 µM; in experiment [4] it was 15.6 µM; in [5], 70.3 µM; in [6], 22.7 µM. Besides, the TGI in experiment [7], in [8], in experiment [9] and in [10] was over 100 µM throughout.

On to `C=C1C(=O)O[C@H]2[C@H]1CC/C(Cn1cc(-c3cccc(Cl)c3)nn1)=C\CC[C@@]1(C)O[C@@H]21`, for which the GI50 in [1] was 1.52 µM; in experiment [2], 0.2 µM; in [3], 2.26 µM; in experiment [4], 0.51 µM; in [5], 2.39 µM; in experiment [6] it was 0.475 µM. The GI50 in [7] is 1.21 µM; in experiment [8], 1.98 µM; in experiment [9], 0.506 µM; in experiment [10], 1.42 µM. The TGI in [1] worked out at 2.97 µM; in experiment [2] it was 0.685 µM; in experiment [3], 5.56 µM; in [4] it was 1.73 µM; in [5], 8.39 µM; in experiment [6], 1.63 µM. Also, the TGI in [7] stood at 2.78 µM; in experiment [8], 3.77 µM; in [9], 3.36 µM; in [10] it was 2.8 µM.

Turning to `CCOc1ccc2c(c1)CN(Cc1ccc(Cl)cc1)CO2`, the GI50 in experiment [1] was 2.09 µM; in [2], 29.9 µM; in [3], 18.2 µM; in [4] it was 20.3 µM; in experiment [5] it was 19.4 µM; in experiment [6], 21.6 µM. Also, the GI50 in experiment [7] was 17.9 µM; in [8], 27.9 µM; in [9], 19.9 µM; in [10] it was 16 µM. In addition, the TGI was 19.2 µM in experiment [1]; 98.5 µM in experiment [2]; 53.7 µM in experiment [3]; 40.4 µM in experiment [4]; 48.9 µM in [5]; 51.1 µM in experiment [6]. Further, the TGI in [7] was 46.2 µM; in [8], over 100 µM; in experiment [9], 46.4 µM; in experiment [10], 35.8 µM.

For the compound `CC(c1ccccc1)[C@@H](C(=O)Nc1ccc(I)cc1F)N1C(=O)N[C@H](c2ccc(OC[C@H](O)CO)cc2)C1=O` (stereo not given in full), the GI50 in [1] is 0.541 µM; in [2], 14.3 µM; in [3] it was 16.3 µM; in experiment [4], 0.0683 µM; in experiment [5] it was over 25 µM; in experiment [6] it was over 21.3 µM. Also, the GI50 in [7] is 1.03 µM; in experiment [8], over 15.4 µM; in experiment [9] it was 11.9 µM; in experiment [10], 0.052 µM. The TGI in experiment [1] is 2.3 µM; in experiment [2], over 25 µM; in experiment [3], over 25 µM; in experiment [4], over 25 µM; in experiment [5], over 25 µM; in [6], over 25 µM. Moreover, the TGI was over 25 µM in [7], over 25 µM in experiment [8], over 25 µM in [9] and 0.892 µM in experiment [10].

With `O=C(Nc1ccccc1C(F)(F)F)c1ccc(NC2=C(Cl)C(=O)N(Cc3ccccc3)C2=O)cc1`, the GI50 in [1] was 38.3 µM; in experiment [2], 2.95 µM; in experiment [3], 43.6 µM; in experiment [4], over 100 µM; in [5], 39.3 µM; in [6], 13.1 µM. Further, the GI50 was 58 µM in experiment [7], 12.2 µM in experiment [8], 8.4 µM in [9] and 28.7 µM in experiment [10]. In addition, the TGI was 89.4 µM in experiment [1]; 12.7 µM in experiment [2]; over 100 µM in experiment [3]; over 100 µM in experiment [4]; over 100 µM in [5]; 76.9 µM in [6]. In addition, the TGI is over 100 µM in experiment [7], over 100 µM in experiment [8], over 100 µM in [9] and 82.9 µM in [10].

Regarding `CN(C)Cc1ccc(C(C)(C)C)cc1-c1cc(C(C)(C)C)ccc1CN(C)C`, the TGI in experiment [1], in experiment [2], in [3], in experiment [4], in experiment [5] and in experiment [6] was over 100 µM in each case. The TGI in [7] is over 100 µM; in experiment [8], over 100 µM; in [9], over 100 µM; in experiment [10], 51.7 µM.

`CC[C@]1(O)CC2CN(CCc3c([nH]c4ccccc34)[C@@](C(=O)OC)(c3cc4c(cc3OC)N(C=O)[C@H]3[C@@](O)(C(=O)OC)[C@H](OC(C)=O)[C@]5(CC)C=CCN6CC[C@]43[C@@H]65)C2)C1` (stereo not given in full): the GI50 in experiment [1] is 0.0123 µM; in [2] it was under 0.005 µM; in experiment [3], 0.0486 µM; in [4], under 0.005 µM; in experiment [5] it was 0.698 µM; in experiment [6], under 0.005 µM. In addition, the GI50 in experiment [7] is 0.0253 µM; in experiment [8], 0.0059 µM; in experiment [9], under 0.005 µM; in experiment [10], under 0.005 µM. Also, the TGI in experiment [3] was over 46.1 µM; in experiment [4], 0.0195 µM; in [5], over 13.3 µM; in [7] it was over 50 µM; in experiment [8], over 50 µM; in experiment [9] it was 17.8 µM. In experiment [10], the TGI is over 38.4 µM.

Regarding `COc1ccc(Cl)cc1Nc1nc(C(F)(F)F)ccc1C(=O)N/N=C/c1cccnc1`, the GI50 in experiment [1] was 1.23 µM; in [2], 0.624 µM; in experiment [3], 11.8 µM; in experiment [4], 6.01 µM; in [5], 3.8 µM; in [6], 0.665 µM. The figures for the GI50 in experiment [8], in experiment [9] and in experiment [10] were 3.8 µM, 2.28 µM and 3.93 µM, respectively. Also, the TGI in experiment [1] was over 100 µM; in experiment [2], over 100 µM; in experiment [3] it was over 100 µM; in [4], over 100 µM; in experiment [5] it was over 100 µM; in experiment [6] it was 6.82 µM. Further, the TGI in [8] was over 100 µM; in [9] it was over 100 µM; in [10], 9.88 µM.
